Data reported in article PMC4374176 (ACS Chemical Biology, 2014).
Values belong to the compound of their own block, whether it stands above or below them. Ends that are not written are not given here. Peptide text beside a SMILES is read from it.

Experiments:
AT2R [1] = assay: [125I]-AII radioligand binding on isolated membranes, wild type AT2R; settings: saturation assay, membranes of transfected HEK-293T cells, 2 hours on ice
Description: (§1) Materials. AT2R receptor-specific blocker PD123319 was purchased from Sigma-Aldrich Chemical Co. (St. Louis, MO). Human AGTR2 pcDNA3.1+ was obtained from the UMR cDNA Resource Center (University of Missouri-Rolla, Rolla, MO). All other chemicals were of analytic grade. The AT1aR and AT2R constructs were a kind gift from Lazlo Hunyady (Semmelweis University, Budapest, Hungary;1).
(§2) Mutagenesis. AT2R mutants were generated as described elsewhere.2
Cell culture and transient transfection. HEK-293T cells were maintained at 37 °C in Dulbecco's modified Eagle's medium (DMEM) supplemented with 10% (v/v) fetal bovine serum (FBS), 2 mM glutamine, 100 U/ml penicillin, and 100 µg/ml streptomycin. […]
(§3) (pcDNAI/Amp) or AT2R variants using GeneJuice transfection reagent according to the manufacturer’s instructions. Cells were harvested 48 hours after transfection, crude membranes were prepared and resuspended in binding buffer (50 mM Tris-HCl pH 7.4, 100 mM NaCl, 10 mM MgCl2, 1mM EDTA, 0.2% BSA and 0.025% Bacitracin, protease inhibitors) at a protein concentration of 3.3 μg/μl as determined by the amido black protein assay. […]
(§4) 0-10 nM (8 data points in triplicate). Non-specific binding was determined in […]
the Figure 3. […] Radioactivity was counted on a Beckman LS6000 liquid scintillation counter and data were analyzed by non-linear regression using Prism software (GraphPad). […]

[2] = system: AT2R-overexpressing PC12W cells; assay: Neurite outgrowth in AT2R-overexpressing PC12W cells; format: cell-based, rat; settings: Ad-AT2R transduced PC12W cells, 1 nM, 24 h stimulation; dose-dependent in the range of 1 pM to 100 nM
Experimental: Figure 3 (a) Competition binding assays of [Y]^6-AII analogue to AT1R, AT2R wild type, and mutants: AT1R, open circle; wild type AT2R, black circles; AT2R-Y189A, blue diamonds; AT2R-Y189N, green triangle; AT2R-F272(6.51)A, red square; AT2R-F272(6.51)H, orange triangle. Kd and Ki values are given in Supplementary Table S3. […] The neurite outgrowth-positive cells were defined as the cells with neurite length longer than their cell diameters. This experiment was carried out in triplicate and repeated twice.
as §1
Mutagenesis. AT2R mutants were generated as described elsewhere.2 […]
as §3

AT1R = molecular target: T1, AT1R (Rattus norvegicus, UniProt P25095); assay: [125I]-AII radioligand binding on isolated membranes, AT1R; settings: competition with [125I]-AII, ligand concentration range 6.4 x 10-12-2.5 x 10^-6 M
T1 construct: expressed in transfected cells; host or cells: HEK-293T, transient, crude membranes
T1 sequence (P25095 1-359): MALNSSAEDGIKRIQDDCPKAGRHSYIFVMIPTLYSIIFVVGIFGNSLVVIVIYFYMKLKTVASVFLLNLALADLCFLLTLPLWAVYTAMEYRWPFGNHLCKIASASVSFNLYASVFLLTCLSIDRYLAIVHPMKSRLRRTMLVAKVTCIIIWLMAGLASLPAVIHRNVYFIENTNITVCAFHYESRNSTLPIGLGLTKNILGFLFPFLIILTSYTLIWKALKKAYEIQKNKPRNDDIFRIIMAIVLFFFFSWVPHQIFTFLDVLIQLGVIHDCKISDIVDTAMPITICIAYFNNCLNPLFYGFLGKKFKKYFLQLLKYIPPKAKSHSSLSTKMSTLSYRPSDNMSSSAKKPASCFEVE

AT2R [3] = molecular target: T2, AT2R (Homo sapiens, UniProt P50052); assay: Whole cell competition binding assay, AT2R-HEK-293 stable cell line; settings: for Fold selectivity AT1R/AT2R (IC50AT1R/IC50AT2R): whole cell IC50 values; for IC50: whole cells, Table S4, read-out: Log IC50 AT2R (converted); for fold lower AT2R selectivity in comparison to [Y]6-AII: AT2R/AT1R selectivity relative to [Y]6-AII
T2 construct: expressed in transfected cells
T2 sequence (P50052 1-363): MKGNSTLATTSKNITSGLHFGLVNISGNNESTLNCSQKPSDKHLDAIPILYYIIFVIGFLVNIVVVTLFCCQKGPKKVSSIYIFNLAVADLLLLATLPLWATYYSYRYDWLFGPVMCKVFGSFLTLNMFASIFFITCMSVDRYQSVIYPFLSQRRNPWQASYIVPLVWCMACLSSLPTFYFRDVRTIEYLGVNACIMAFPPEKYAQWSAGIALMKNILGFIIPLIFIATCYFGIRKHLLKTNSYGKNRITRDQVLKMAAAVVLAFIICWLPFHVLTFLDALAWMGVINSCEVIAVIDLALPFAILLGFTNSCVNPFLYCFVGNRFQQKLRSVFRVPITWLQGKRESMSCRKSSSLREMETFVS
Description: as §1, §2
Cell culture and transient transfection. HEK-293T cells were maintained at 37 °C in Dulbecco's modified Eagle's medium (DMEM) supplemented with 10% (v/v) fetal bovine serum (FBS), 2 mM glutamine, 100 U/ml penicillin, and 100 µg/ml streptomycin. Cells were transfected with either AT1R (pcDNA3.1), AT2R
(pcDNAI/Amp) or AT2R variants using GeneJuice transfection reagent according to the manufacturer’s instructions. Cells were harvested 48 hours after transfection, crude membranes were prepared and resuspended in binding buffer (50 mM Tris-HCl pH 7.4, 100 mM NaCl, 10 mM MgCl2, 1mM EDTA, 0.2% BSA and 0.025% Bacitracin, protease inhibitors) at a protein concentration of 3.3 μg/μl as determined by the amido black protein assay. For whole cells assays, HEK-293 cells stably transfected with either AT1R or the AT2R (kindly supplied by Professor W. Thomas, University of Queensland) were used. These cells were grown to approximately 80% confluence and were then re-plated into 48 well plates at 1x10^5 cells/well and grown for 48 hours at 37°C for a whole cell competition binding assay, as described previously.4 Minor differences between the binding assays performed on isolated membrane preparation and whole cells are probably due to the loss of G-protein in the former.5 PC12W cells, a substrain from a clonal isolation of a rat adrenal chromaffin cell tumor, were cultured in DMEM supplemented with 10% FBS, 100 units/ml penicillin and 100μg/ml streptomycin (Invitrogen, Carlsbad, CA) as previously described.6 The cells were incubated in a 5% CO2 humidified incubator at 37°C. Preparation of recombinant replication-deficient adenovirus containing the human AT2R coding region was carried out by VECTOR BIOLABS (Philadelphia, PA).
For gene transduction with adenoviral vectors cells were seeded at 1.2 x 10^5 cells per well in a 6-well plate. After 24 hours, cells were incubated at 37°C for 6 hours in serum-free DMEM containing adenoviral vectors (Ad-AT2R 30 multiplicity of infection (MOI)), and shaken lightly every fifteen minutes. After 6 hr incubation, cells were cultured in 10% FBS containing DMEM at 37°C, 5% CO2 for an additional 24 hours.
Cells were then trypsinized and subcultured at a density of 2 x 10^3 cells per well on a 24-well plate. For the evaluation of the effect of [Y]6-AII analogue on the neurite outgrowth of PC12W cells, at 24 hours after subculture, control cells and the AT2R […]
Radioligand binding assays. Saturation curves on cell membranes were obtained using 10 μg protein per data point and a range of *125I]-AII (Amersham) concentration […]
as §4
Competition assays were performed using a concentration […]
the Figure 3. Samples were incubated for 2 hours at 4°C. Receptor-bound and free radioligand were separated by filtration through Whatman GF/B filters, pre-soaked with 0.3% polyethylamine. The filters were washed with 5 ml of ice-cold binding buffer and transferred to scintillation tubes. Radioactivity was counted on a Beckman LS6000 liquid scintillation counter and data were analyzed by non-linear regression using Prism software (GraphPad). Ki values were calculated according to the Cheng […]
Experiments on whole cells were performed in both AT1R- and AT2R-HEK-293 stable cell lines, as previously described in detail4 with minor modifications. Novel peptides and references compounds, CGP42112 and candesartan, were examined for their ability to inhibit specific binding of [125I]-Ang II, and nonspecific binding was determined using 10μM cold Ang II. […]

PAR4 receptor = system: PAR4 receptor; parameters: method as in Faruqi T., et al. [12]; settings: ref Faruqi T., et al. [12]; cited from earlier work
PAR1 receptor = system: PAR1 receptor; parameters: method as in Faruqi T., et al. [12]; settings: ref Faruqi T., et al. [12]; cited from earlier work

Compound: CC[C@H](C)[C@H](NC(=O)[C@H](Cc1ccc(O)cc1)NC(=O)[C@@H](NC(=O)[C@H](CCCNC(=N)N)NC(=O)[C@@H](N)CC(=O)O)C(C)C)C(=O)N[C@@H](Cc1ccc(OP(=O)(O)O)cc1)C(=O)N1CCC[C@H]1C(=O)N[C@@H](Cc1ccccc1)C(=O)O [[4-OPO3H2-F]^6-AII, D1-R2-V3-Y4-I5-(4-OPO3H2-F)6-P7-F8] (HELM PEPTIDE1{D.R.V.Y.I.[O=C([C@H](Cc1ccc(OP(=O)(O)O)cc1)N[*:1])[*:2]].P.F}$$$$V2.0)
- Ki AT1R (AT1R): No detectable competitive binding
- Fold selectivity AT1R/AT2R (IC50AT1R/IC50AT2R) (AT2R [3]): 4479 fold
- IC50 (AT2R [3]): 9.57 nM

Compound: DRVYIYPF [[Y]^6-AII, D1-R2-V3-Y4-I5-Y6-P7-F8]
- Ki AT1R (AT1R): No detectable competitive binding
- Fold selectivity AT1R/AT2R (IC50AT1R/IC50AT2R) (AT2R [3]): 18,000 fold

Compound: GYPGKF
- PAR4 receptor activity (PAR4 receptor): 55
- PAR1 receptor activity (PAR1 receptor): 0

Compound: CC[C@H](C)[C@H](NC(=O)[C@H](Cc1ccc(O)cc1)NC(=O)[C@@H](NC(=O)[C@H](CCCNC(=N)N)NC(=O)[C@@H](N)CC(=O)O)C(C)C)C(=O)N[C@@H](Cc1ccc([N+](=O)[O-])cc1)C(=O)N1CCC[C@H]1C(=O)N[C@@H](Cc1ccccc1)C(=O)O [[4-NO2-F]^6-AII, D1-R2-V3-Y4-I5-(4-NO2-F)6-P7-F8] (HELM PEPTIDE1{D.R.V.Y.I.[O=C([C@H](Cc1ccc([N+](=O)[O-])cc1)N[*:1])[*:2]].P.F}$$$$V2.0)
- Fold selectivity AT1R/AT2R (IC50AT1R/IC50AT2R) (AT2R [3]): 694 fold
- fold lower AT2R selectivity in comparison to [Y]6-AII (AT2R [3]): 26 fold
- IC50 (AT2R [3]): 4.92 nM

Compound: CC[C@H](C)[C@H](NC(=O)[C@@H]1CCCN1C(=O)[C@H](Cc1c[nH]cn1)NC(=O)[C@H](CCCCNC(=O)[C@H](CCCN=C(N)N)NC(=O)OCc1ccccc1)NC(=O)[C@H](Cc1ccc(O)cc1)NC(=O)c1cccnc1)C(=O)O [CGP42112] (HELM PEPTIDE1{[O=C(c1cccnc1)[*:2]].Y.K.H.P.I}|PEPTIDE2{[O=C(OCc1ccccc1)[*:2]].R}$PEPTIDE1,PEPTIDE2,3:R3-2:R2$$$V2.0)
- IC50 (AT2R [3]): 0.558 nM

Compound: DRVYIFPF [[F]^6-AII, D1-R2-V3-Y4-I5-F6-P7-F8] [listing 1 of 2 here]
- IC50 (AT2R [3]): 1.4 nM

Compound: G(F)PGKF
- PAR4 receptor activity (PAR4 receptor): 61
- PAR1 receptor activity (PAR1 receptor): 111

Compound: GFPGKF
- PAR4 receptor activity (PAR4 receptor): 53
- PAR1 receptor activity (PAR1 receptor): 35

Second part, led by results:

- Kd (AT2R [1]): 2.3 nM
Compound: CC[C@H](C)[C@H](NC(=O)[C@H](Cc1ccc(O)cc1)NC(=O)[C@@H](NC(=O)[C@H](CCCNC(=N)N)NC(=O)[C@@H](N)CC(=O)O)C(C)C)C(=O)N[C@@H](Cc1c[nH]cn1)C(=O)N1CCC[C@H]1C(=O)N[C@@H](Cc1ccccc1)C(=O)O [AII]
- neurite outgrowth [2]: significantly stimulated neurite outgrowth

- IC50 (AT2R [3]): 13500 nM
Compound: CCOc1nc2cccc(C(=O)O)c2n1Cc1ccc(-c2ccccc2-c2nnn[nH]2)cc1 [Candesartan, candesartan]

- Fold selectivity AT1R/AT2R (IC50AT1R/IC50AT2R) (AT2R [3]): 4786 fold
- fold lower AT2R selectivity in comparison to [Y]6-AII (AT2R [3]): ~4 fold
Compound: DRVYIFPF [[F]^6-AII, D1-R2-V3-Y4-I5-F6-P7-F8] [listing 2 of 2 here]

- Kd (AT2R [1]): 2.3 nM
Compound: [125I]-AII: radioiodinated AII, radioligand of the binding assays (DRVYIHPF; also: 125I label, position not given here; UniProt P01019 25-32, looked up)
